Where a SMILES comes first, the peptide text is derived from it. Bridges are numbered along the chain shown (N, C = ends). [ ]: non-standard residue; d: D form. Trp(βS-Me) = C[C@@H](c1c[nH]c2ccccc12)[C@H](N)C(=O)O; Phe(3,4,5-F3) = N[C@@H](Cc1cc(F)c(F)c(F)c1)C(=O)O; NMePhe(4-F) = CN[C@@H](Cc1ccc(F)cc1)C(=O)O; Hyp = O=C(O)[C@@H]1C[C@@H](O)CN1; NMeF = CN[C@@H](Cc1ccccc1)C(=O)O; dHyp = O=C(O)[C@H]1C[C@H](O)CN1; NMeNle = CCCC[C@H](NC)C(=O)O; dPip = O=C(O)[C@H]1CCCCN1; NMeA = CN[C@@H](C)C(=O)O; Dab = NCC[C@H](N)C(=O)O
molecular target: T1, Human PD-L1/PD-1 (Homo sapiens, UniProt Q9NZQ7); experiment: HTRF Human PD-L1/PD-1 binding assay (PD-1-Ig/PD-L1-His); settings: PD-L1-His 10 nM, PD-1-Ig 20 nM; class symbol; read-out: HTRF Human PD-L1/PD-1 Binding Assay IC50 Range
T1 construct: TVMV protease cleavage site (C); made in house; host or cells: HEK293T cells
T1 sequence (Q9NZQ7 with tags, fused parts or gaps): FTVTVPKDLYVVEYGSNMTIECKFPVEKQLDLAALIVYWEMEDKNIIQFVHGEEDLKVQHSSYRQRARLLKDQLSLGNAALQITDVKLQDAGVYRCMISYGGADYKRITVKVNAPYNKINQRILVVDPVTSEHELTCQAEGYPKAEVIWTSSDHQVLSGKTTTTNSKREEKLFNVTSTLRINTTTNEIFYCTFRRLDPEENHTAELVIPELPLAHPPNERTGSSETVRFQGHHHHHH
How it was run: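 HTRF read-out (665/620 nm ratio) after 30 min equilibration with Eu-cryptate anti-Ig mAb (1 nM) and APC anti-His mAb (20 nM). Peptides preincubated 15 min with PD-L1-His (10 nM), then PD-1-Ig (20 nM) added for 15 min.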

IC50, 1 to 9.9 nM:
CCCC[C@H]1C(=O)N(C)[C@@H](CCCC)C(=O)N[C@@H](CC(C)C)C(=O)N[C@H](C(=O)NCC(N)=O)CSCC(=O)N[C@@H](Cc2ccc(O)cc2)C(=O)N(C)[C@@H](C)C(=O)N[C@@H](CC(N)=O)C(=O)N2CCC[C@H]2C(=O)N[C@@H](Cc2c[nH]cn2)C(=O)N[C@@H](CCC(N)=O)C(=O)N2C[C@H](O)C[C@H]2C(=O)N[C@@H]([C@@H](C)c2c[nH]c3ccccc23)C(=O)N[C@@H](CO)C(=O)N[C@@H](Cc2c[nH]c3ccccc23)C(=O)N1C [Example 10554] ({CH2CO}-Y[NMeA]NPHQ[Hyp][Trp(βS-Me)]SW[NMeNle][NMeNle]LCG-NH2; thioether N-14)
CCCC[C@H]1C(=O)N(C)[C@@H](CCCC)C(=O)N[C@@H](CC(C)C)C(=O)N[C@H](C(=O)NCC(N)=O)CSCC(=O)N[C@@H](Cc2ccc(O)cc2)C(=O)N(C)[C@@H](C)C(=O)N[C@@H](CC(N)=O)C(=O)N2CCC[C@H]2C(=O)N[C@@H](Cc2c[nH]cn2)C(=O)N[C@@H](CCC(=O)O)C(=O)N2C[C@H](O)C[C@H]2C(=O)N[C@@H]([C@@H](C)c2c[nH]c3ccccc23)C(=O)N[C@@H](CCN)C(=O)N[C@@H](Cc2c[nH]c3ccccc23)C(=O)N1C [Example 10555] ({CH2CO}-Y[NMeA]NPHE[Hyp][Trp(βS-Me)][Dab]W[NMeNle][NMeNle]LCG-NH2; thioether N-14)
CCCC[C@H]1C(=O)N2C[C@@H](O)C[C@@H]2C(=O)N[C@@H](CC(=O)O)C(=O)N[C@@H](C(C)C)C(=O)N(C)[C@@H](Cc2ccccc2)C(=O)N[C@@H](CCC(=O)O)C(=O)N2CCCC[C@@H]2C(=O)N[C@@H](Cc2c[nH]c3ccccc23)C(=O)N[C@@H](Cc2ccc(O)cc2)C(=O)N[C@@H](CC(C)C)C(=O)N[C@H](C(=O)NCC(N)=O)CSCC(=O)N[C@@H](Cc2cc(F)c(F)c(F)c2)C(=O)N(C)[C@@H](Cc2ccc(F)cc2)C(=O)N1C [Example 10556] ({CH2CO}-[Phe(3,4,5-F3)][NMePhe(4-F)][NMeNle][dHyp]DV[NMeF]E[dPip]WYLCG-NH2; thioether N-13)
CCCC[C@H]1C(=O)N2C[C@@H](O)C[C@@H]2C(=O)N[C@@H](CC(=O)O)C(=O)N[C@@H](C(C)C)C(=O)N(C)[C@@H](Cc2ccccc2)C(=O)N[C@@H](CCC(=O)O)C(=O)N2CCCC[C@@H]2C(=O)N[C@@H](Cc2c[nH]c3ccccc23)C(=O)N[C@@H](Cc2ccc(O)cc2)C(=O)N[C@@H](CO)C(=O)N[C@H](C(=O)NCC(N)=O)CSCC(=O)N[C@@H](Cc2cc(F)c(F)c(F)c2)C(=O)N(C)[C@@H](Cc2ccc(F)cc2)C(=O)N1C [Example 10557] ({CH2CO}-[Phe(3,4,5-F3)][NMePhe(4-F)][NMeNle][dHyp]DV[NMeF]E[dPip]WYSCG-NH2; thioether N-13)
CCCC[C@H]1C(=O)N2C[C@@H](O)C[C@@H]2C(=O)N[C@@H](CC(=O)O)C(=O)N[C@@H](C(C)C)C(=O)N(C)[C@@H](Cc2ccccc2)C(=O)N[C@@H](CCC(=O)O)C(=O)N2CCCC[C@@H]2C(=O)N[C@@H](Cc2c[nH]c3ccccc23)C(=O)N[C@@H](Cc2ccc(O)cc2)C(=O)N[C@@H](CC(N)=O)C(=O)N[C@H](C(=O)NCC(N)=O)CSCC(=O)N[C@@H](Cc2cc(F)c(F)c(F)c2)C(=O)N(C)[C@@H](Cc2ccc(F)cc2)C(=O)N1C [Example 10558] ({CH2CO}-[Phe(3,4,5-F3)][NMePhe(4-F)][NMeNle][dHyp]DV[NMeF]E[dPip]WYNCG-NH2; thioether N-13)
CCCC[C@H]1C(=O)N2C[C@@H](O)C[C@@H]2C(=O)N[C@@H](CC(=O)O)C(=O)N[C@@H](C(C)C)C(=O)N(C)[C@@H](Cc2ccccc2)C(=O)N[C@@H](CCC(=O)O)C(=O)N2CCCC[C@@H]2C(=O)N[C@@H](Cc2c[nH]c3ccccc23)C(=O)N[C@@H](Cc2ccc(O)cc2)C(=O)N[C@@H](CCC(N)=O)C(=O)N[C@H](C(=O)NCC(N)=O)CSCC(=O)N[C@@H](Cc2cc(F)c(F)c(F)c2)C(=O)N(C)[C@@H](Cc2ccc(F)cc2)C(=O)N1C [Example 10559] ({CH2CO}-[Phe(3,4,5-F3)][NMePhe(4-F)][NMeNle][dHyp]DV[NMeF]E[dPip]WYQCG-NH2; thioether N-13)
CCCC[C@H]1C(=O)N2C[C@@H](O)C[C@@H]2C(=O)N[C@@H](CC(=O)O)C(=O)N[C@@H](C(C)C)C(=O)N(C)[C@@H](Cc2ccccc2)C(=O)N[C@@H](CCC(=O)O)C(=O)N2CCCC[C@@H]2C(=O)N[C@@H](Cc2c[nH]c3ccccc23)C(=O)N[C@@H](Cc2ccc(O)cc2)C(=O)N[C@@H](CCCCN)C(=O)N[C@H](C(=O)NCC(N)=O)CSCC(=O)N[C@@H](Cc2cc(F)c(F)c(F)c2)C(=O)N(C)[C@@H](Cc2ccc(F)cc2)C(=O)N1C [Example 10560] ({CH2CO}-[Phe(3,4,5-F3)][NMePhe(4-F)][NMeNle][dHyp]DV[NMeF]E[dPip]WYKCG-NH2; thioether N-13)
CCCC[C@H]1C(=O)N2CCC[C@@H]2C(=O)N[C@@H](CC(=O)O)C(=O)N[C@@H](C(C)C)C(=O)N(C)[C@@H](Cc2ccccc2)C(=O)N[C@@H](CCC(=O)O)C(=O)N2CCCC[C@@H]2C(=O)N[C@@H](Cc2c[nH]c3ccccc23)C(=O)N[C@@H](Cc2ccc(O)cc2)C(=O)N[C@@H](CC(C)C)C(=O)N[C@H](C(=O)NCC(N)=O)CSCC(=O)N[C@@H](Cc2cc(F)c(F)c(F)c2)C(=O)N(C)[C@@H](Cc2ccc(F)cc2)C(=O)N1C [Example 10561] ({CH2CO}-[Phe(3,4,5-F3)][NMePhe(4-F)][NMeNle][dP]DV[NMeF]E[dPip]WYLCG-NH2; thioether N-13)
CCCC[C@H]1C(=O)N2CCC[C@@H]2C(=O)N[C@@H](CC(=O)O)C(=O)N[C@@H](C(C)C)C(=O)N(C)[C@@H](Cc2ccccc2)C(=O)N[C@@H](CCC(=O)O)C(=O)N2CCCC[C@@H]2C(=O)N[C@@H](Cc2c[nH]c3ccccc23)C(=O)N[C@@H](Cc2ccc(O)cc2)C(=O)N[C@@H](CC(N)=O)C(=O)N[C@H](C(=O)NCC(N)=O)CSCC(=O)N[C@@H](Cc2cc(F)c(F)c(F)c2)C(=O)N(C)[C@@H](Cc2ccc(F)cc2)C(=O)N1C [Example 10562] ({CH2CO}-[Phe(3,4,5-F3)][NMePhe(4-F)][NMeNle][dP]DV[NMeF]E[dPip]WYNCG-NH2; thioether N-13)
CCCC[C@H]1C(=O)N2CCC[C@@H]2C(=O)N[C@@H](CC(=O)O)C(=O)N[C@@H](C(C)C)C(=O)N(C)[C@@H](Cc2ccccc2)C(=O)N[C@@H](CCC(=O)O)C(=O)N2CCCC[C@@H]2C(=O)N[C@@H](Cc2c[nH]c3ccccc23)C(=O)N[C@@H](Cc2ccc(O)cc2)C(=O)N[C@@H](CCC(N)=O)C(=O)N[C@H](C(=O)NCC(N)=O)CSCC(=O)N[C@@H](Cc2cc(F)c(F)c(F)c2)C(=O)N(C)[C@@H](Cc2ccc(F)cc2)C(=O)N1C [Example 10563] ({CH2CO}-[Phe(3,4,5-F3)][NMePhe(4-F)][NMeNle][dP]DV[NMeF]E[dPip]WYQCG-NH2; thioether N-13)
CCCC[C@H]1C(=O)N2CCC[C@@H]2C(=O)N[C@@H](CC(=O)O)C(=O)N[C@@H](C(C)C)C(=O)N(C)[C@@H](Cc2ccccc2)C(=O)N[C@@H](CCC(=O)O)C(=O)N2CCCC[C@@H]2C(=O)N[C@@H](Cc2c[nH]c3ccccc23)C(=O)N[C@@H](Cc2ccc(O)cc2)C(=O)N[C@@H](CCCCN)C(=O)N[C@H](C(=O)NCC(N)=O)CSCC(=O)N[C@@H](Cc2cc(F)c(F)c(F)c2)C(=O)N(C)[C@@H](Cc2ccc(F)cc2)C(=O)N1C [Example 10564] ({CH2CO}-[Phe(3,4,5-F3)][NMePhe(4-F)][NMeNle][dP]DV[NMeF]E[dPip]WYKCG-NH2; thioether N-13)

From patent US10538555B2, “Macrocyclic inhibitors of the PD-1/PD-L1 and CD80(B7-1)/PD-L1 protein/protein interactions” (BRISTOL-MYERS SQUIBB COMPANY, priority 2014, dated 2020)
